# Experimental data reported in US12291529B2, “Heterocyclic GLP-1 agonists” (Gasherbrum Bio, Inc., priority 2023, dated 2025).
# Target: GLP-1 Receptor (Homo sapiens, UniProt P43220)
# Assay: GLP-1R agonist cAMP stimulation assay (HEK293/GLP1R/CRE-LUC cells, Cisbio cAMP dynamic 2 kit)
# Type: cell-based
# Details: Table 3, HEK293/GLP1R/CRE-LUC cells, 30 min
# Protocol: Activation of GLP-1 receptor is known to stimulate cyclic AMP (cAMP) production in cells which indicates primary coupling to the G as subunit of the G protein heterotrimeric complex.
# To optimize functional activity directed toward G as coupling, a HEK293/CRE-Luc cell line developed by HDB stably expressing the GLP-1 Receptor was used. 200× concentration of compound working solutions were prepared (Agilent Technologies Bravo) with ½ log serial dilution in 384-well Echo LDV plate (Labcyte, CatOLP-0200). 50 nL/well 200× concentration of compound working solutions were moved to 384-well white low volume plate (Greiner, Cat4784075) using Labcyte ECH0550.1×10^5 cells/mL HEK293/GLP1R/CRE-LUC (HD Biosciences) cell suspensions prepared with assay buffer (DPBS containing 0.5 mM IBMX (Sigma, Cat15879) and 0.10 BSA (GENVIEW, Cat4FA016-100g)), 10 uL cell suspensions were added to each well of previous generated assay plate which already contains 50 n^1 compound at 200 xconcentration using ThermioFisher Multidrop Combi (1000 cells/well). Seal the plate and incubate at 37 with […] for 30 m.
# After incubation the cAMP assay signal was generated using cAMP dynamic 2 Kit (Cisbio). 5 μL cAMP-d2 working solution was added to each well, followed with 5 L Anti-cAMP antibody-cryptate working solution added to each well using ThermoFisher Multidrop Combi. Incubate at room temperature for 1 hour protected from light. Read the fluorescence at 665 and 615 nm with Reader PerkinElmer EnVision. % oActivity=100%×(mean RLU of test sample−mean RLU of vehicle control)/(mean RLU of MAX control−mean RLU of vehicle control)
# GLP-1 Receptor, sequence (P43220 24-463, species assumed): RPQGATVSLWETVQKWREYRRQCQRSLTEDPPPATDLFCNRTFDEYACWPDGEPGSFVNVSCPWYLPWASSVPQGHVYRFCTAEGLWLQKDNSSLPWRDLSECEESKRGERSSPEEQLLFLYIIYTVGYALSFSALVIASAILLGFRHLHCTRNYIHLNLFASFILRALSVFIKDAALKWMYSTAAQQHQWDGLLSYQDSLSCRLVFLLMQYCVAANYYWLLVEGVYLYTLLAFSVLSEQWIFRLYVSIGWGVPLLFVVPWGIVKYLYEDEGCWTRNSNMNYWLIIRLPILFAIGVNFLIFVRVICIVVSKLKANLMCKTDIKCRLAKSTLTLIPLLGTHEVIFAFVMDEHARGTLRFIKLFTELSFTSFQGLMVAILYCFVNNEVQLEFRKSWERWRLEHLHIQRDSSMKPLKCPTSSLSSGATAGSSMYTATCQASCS
row,SMILES,EC50
1,Cc1cc(-n2nc3c(c2-n2ccn(-c4ccc(S(C)(=N)=O)cc4)c2=O)[C@H](C)N(C(=O)c2cc4cc(C5CCOCC5)ccn4c2C2(c4noc(=O)[nH]4)CC2)CC3)cc(C)c1F (some centres unmarked) [Compound 107],0.46 nM
2,"CCS(=N)(=O)c1ccc(-n2ccn(-c3c4c(nn3-c3cc(C)c(F)c(C)c3)CCN(C(=O)c3cc5cc(C6CCOCC6)ccc5n3[C@@]3(c5noc(=O)[nH]5)C[C@@H]3C)[C@H]4C)c2=O)cc1 (single isomer, unassigned) [Compound 117]",0.011 nM
3,"Cc1cc(-n2nc3c(c2-n2ccn(-c4ccc(S(=N)(=O)C5CC5)cc4)c2=O)[C@H](C)N(C(=O)c2cc4cc(C5CCOCC5)ccc4n2[C@@]2(c4noc(=O)[nH]4)C[C@@H]2C)CC3)cc(C)c1F (single isomer, unassigned) [Compound 135]",0.001 nM
4,Cc1cc(-n2nc3c(c2-n2ccn(-c4ccc(S(C)(=N)=O)cc4)c2=O)[C@H](C)N(C(=O)c2cc4cc(C5CCOCC5)ccc4n2[C@@]2(c4noc(=O)[nH]4)C[C@@H]2C)CC3)cc(C)c1F (some centres unmarked) [Compound 110],0.028 nM
5,"CCS(=N)(=O)c1ccc(-n2ccn(-c3c4c(nn3-c3cc(C)c(F)c(C)c3)CCN(C(=O)c3sc5cc(C6CCOCC6)ccc5c3C3(c5noc(=O)[nH]5)CC3)[C@H]4C)c2=O)cc1 (single isomer, unassigned) [Compound 132]",0.98 nM
6,"CCS(=N)(=O)c1ccc(-n2ccn(-c3c4c(nn3-c3ccc(F)c(C5CC5)c3)CCN(C(=O)c3cc5cc(C6CCOCC6)ccc5n3[C@@]3(c5noc(=O)[nH]5)C[C@@H]3C)[C@H]4C)c2=O)c(F)c1 (single isomer, unassigned) [Compound 166]",0.019 nM

# More lines, now with the values ahead:
row,EC50,SMILES
1,0.011 nM,"Cc1cc(-n2nc3c(c2-n2ccn(-c4ccc5c(c4Cl)CN=S5(C)=O)c2=O)[C@H](C)N(C(=O)c2cc4cc([C@H]5CCOC(C)(C)C5)ccc4n2[C@@]2(c4noc(=O)[nH]4)C[C@@H]2C)CC3)cc(C)c1F (single isomer, unassigned) [Compound 201]"
2,0.046 nM,"CN=S(=O)(c1cc(F)c(-n2ccn(-c3c4c(nn3-c3cc(C)c(F)c(C)c3)CCN(C(=O)c3cc5cc([C@H]6CCOC(C)(C)C6)ccc5n3[C@@]3(c5noc(=O)[nH]5)C[C@@H]3C)[C@H]4C)c2=O)cc1C)C1CC1 (single isomer, unassigned) [Compound 194]"
3,0.041 nM,"CC1=Cc2c(ccc(-n3ccn(-c4c5c(nn4-c4cc(C)c(F)c(C)c4)CCN(C(=O)c4cc6cc([C@H]7CCOC(C)(C)C7)ccc6n4[C@@]4(c6noc(=O)[nH]6)C[C@@H]4C)[C@H]5C)c3=O)c2F)S(=O)(C2CC2)=N1 (single isomer, unassigned) [Compound 211]"
4,0.094 nM,"Cc1cc(-n2nc3c(c2-n2ccn(-c4ccc(S(=N)(=O)CC5CC5)cc4F)c2=O)[C@H](C)N(C(=O)c2cc4cc(C5CCOCC5)ccc4n2[C@@]2(c4noc(=O)[nH]4)C[C@@H]2C)CC3)cc(C)c1F (single isomer, unassigned) [Compound 178]"
5,0.037 nM,"CN=S1(=O)CCC(Oc2ccc(-n3ccn(-c4c5c(nn4-c4cc(C)c(F)c(C)c4)CCN(C(=O)c4cc6cc(C7CCOCC7)ccc6n4[C@@]4(c6noc(=O)[nH]6)C[C@@H]4C)[C@H]5C)c3=O)c(F)c2C)CC1 (single isomer, unassigned) [Compound 232]"
6,0.1 nM,"CN=S(=O)(c1cc(F)c(-n2ccn(-c3c4c(nn3-c3cc(C)c(F)c(C)c3)CCN(C(=O)c3cc5cc([C@H]6CCOC(C)(C)C6)ccc5n3[C@@]3(c5noc(=O)[nH]5)C[C@@H]3C)[C@H]4C)c2=O)cc1C)C1CC1 (single isomer, unassigned) [Compound 193]"
7,0.12 nM,"Cc1cc(-n2nc3c(c2-n2ccn(-c4ccc5c(c4)CCCN=S5(=O)C4CC4)c2=O)[C@H](C)N(C(=O)c2cc4cc([C@H]5CCOC(C)(C)C5)ccc4n2[C@@]2(c4noc(=O)[nH]4)C[C@@H]2C)CC3)cc(C)c1F (single isomer, unassigned) [Compound 213]"
8,0.024 nM,"Cc1cc(-n2nc3c(c2-n2ccn(-c4ccc(C5(S(C)(=N)=O)CC5)cc4)c2=O)[C@H](C)N(C(=O)c2cc4cc(C5CCOCC5)ccc4n2[C@@]2(c4noc(=O)[nH]4)C[C@@H]2C)CC3)cc(C)c1F (single isomer, unassigned) [Compound 176]"
